These compounds were tested against T1, PHD2 (Homo sapiens, UniProt Q9GZT9) (assay: Assay for HIF-PHD2 Catalytic Activity (time resolved fluorescence, VHL complex detection)). Details: FLAG-tagged full length PHD2; 0.2 μM 2-oxoglutarate, 0.5 μM HIF-1α peptide; read-out: PHD2 Binding Activity IC50.
T1 construct: FLAG-tagged full length PHD2expressed in and purified from baculovirus-infected Sf9 cells; FLAG; made in house; host or cells: baculovirus-infected Sf9 cells
Type: biochemical
Procedure: Assay for HIF-PHD2Catalytic Activity To each well of a 96-well plate was added 1 μL of test compound in DMSO and 20 μl of assay buffer (50 mM Tris pH 7.4/0.01% Tween-20/0.1 mg/ml bovine serum albumin/10 μM ferrous sulfate/1mM sodium ascorbate/20 μg/ml catalase) containing 0.15 μg/ml FLAG-tagged full length PHD2expressed in and purified from baculovirus-infected Sf9 cells. After a 30 min preincubation at room temperature, the enzymatic reactions were initiated by the addition of 4 μL of substrates (final concentrations of 0.2 μM 2-oxoglutarate and 0.5 μM HIF-1α peptide biotinyl-DLDLEMLAPYJPMDDDFQL).

T1 sequence (Q9GZT9 whole entry): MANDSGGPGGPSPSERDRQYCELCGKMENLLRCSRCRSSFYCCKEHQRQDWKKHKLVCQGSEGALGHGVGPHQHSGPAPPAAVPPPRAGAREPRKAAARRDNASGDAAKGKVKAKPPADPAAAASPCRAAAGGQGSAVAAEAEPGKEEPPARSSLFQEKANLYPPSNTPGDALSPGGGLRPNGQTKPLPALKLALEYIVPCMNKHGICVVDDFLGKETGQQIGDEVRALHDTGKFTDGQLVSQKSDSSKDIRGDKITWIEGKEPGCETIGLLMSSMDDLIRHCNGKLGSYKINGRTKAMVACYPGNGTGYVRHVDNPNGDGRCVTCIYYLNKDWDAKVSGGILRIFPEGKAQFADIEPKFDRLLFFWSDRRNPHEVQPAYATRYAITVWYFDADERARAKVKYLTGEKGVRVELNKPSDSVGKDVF

Row | SMILES | IC50 [µM]
1 | Cc1ccccc1-n1ccc(Cn2c3c(c(O)c(C(=O)NCC(=O)O)c2=O)COC3)n1 [Example 20, N-[(4-hydroxy-1-{[1-(2-methylphenyl)-1-H-pyrazol-3-yl]methyl}-2-oxo-1,2,5,7-tetrahydrofuro[3,4-b]pyridin-3-yl)carbonyl]glycine] | < 0.01
2 | Cc1nn(-c2ccccc2)nc1Cn1c2c(c(O)c(C(=O)NCC(=O)O)c1=O)COC2 [Example 21, N-({4-hydroxy-1-[(5-methyl-2-phenyl-2H-1,2,3-triazol-4-yl)methyl]-2-oxo-1,2,5,7-tetrahydrofuro[3,4-b]pyridin-3-yl}carbonyl)glycine] | < 0.01
3 | O=C(O)CNC(=O)c1c(O)c2c(n(Cc3ccn(-c4ccc(F)cc4)n3)c1=O)COC2 [Example 22] | < 0.01
4 | O=C(O)CNC(=O)c1c(O)c2c(n(Cc3ccc(-c4nccs4)cc3)c1=O)COC2 [Example 23, N-({4-hydroxy-2-oxo-1-[4-(1,3-thiazol-2-yl)benzyl]-1,2,5,7-tetrahydrofuro[3,4-b]pyridin-3-yl}carbonyl)glycine] | < 0.01
5 | O=C(O)CNC(=O)c1c(O)c2c(n(Cc3ccc(OCC(F)(F)F)cc3)c1=O)COC2 [Example 24, N-({4-hydroxy-2-oxo-1-[4-(2,2,2-trifluoroethoxy)benzyl]-1,2,5,7-tetrahydrofuro[3,4-b]pyridin-3-yl}carbonyl)glycine] | < 0.01
6 | CC1(C)OCc2c(O)c(C(=O)NCC(=O)O)c(=O)n(Cc3nc4ccccc4s3)c21 [Example 25] | 0.01 to 0.1
7 | O=C(O)CNC(=O)c1c(O)c2c(n(Cc3nc(-c4ccc(Cl)cc4Cl)cs3)c1=O)COC2 [Example 26, N-[(1-{[4-(2,4-dichlorophenyl)-1,3-thiazol-2-yl]methyl)-4-hydroxy-2-oxo-1,2,5,7-tetrahydrofuro[3,4-b]pyridin-3-yl)carbonyl]glycine] | < 0.01
8 | O=C(O)CNC(=O)c1c(O)c2c(n(Cc3nc(-c4ccccc4Cl)cs3)c1=O)COC2 [Example 27, N-[(1-{[4-(2-chlorophenyl)-1,3-thiazol-2-yl]methyl)-4-hydroxy-2-oxo-1,2,5,7-tetrahydrofuro[3,4-b]pyridin-3-yl)carbonyl]glycine] | < 0.01
9 | O=C(O)CNC(=O)c1c(O)c2c(n(Cc3ccc(-c4ccccc4Cl)cc3)c1=O)COC2 [Example 28] | < 0.01
10 | O=C(O)CNC(=O)c1c(O)c2c(n(Cc3ccc(-c4ccccc4Cl)nc3)c1=O)COC2 [Example 29] | < 0.01
11 | O=C(O)CNC(=O)c1c(O)c2c(n(Cc3ccc(-c4ccc(Cl)cc4)cc3)c1=O)COC2 [Example 30] | < 0.01
12 | O=C(O)CNC(=O)c1c(O)c2c(n(Cc3ccc(-c4ccc(F)cc4)cc3)c1=O)COC2 [Example 31] | < 0.01
13 | O=C(O)CNC(=O)c1c(O)c2c(n(Cc3ccc(-c4ccccc4-n4cccn4)cc3)c1=O)COC2 [Example 32, N-[(4-hydroxy-2-oxo-1-{[2′-(1H-pyrazol-yl)biphenyl-4-yl]methyl}-1,2,5,7-tetrahydrofuro[3,4-b]pyridin-3-yl}carbonyl)glycine] | < 0.01
14 | O=C(O)CNC(=O)c1c(O)c2c(n(Cc3ccc(-c4ccccc4C(F)(F)F)cc3)c1=O)COC2 [Example 33, N-[(4-hydroxy-2-oxo-1-{[2′-(trifluoromethyl)biphenyl-4-yl]methyl}-1,2,5,7-tetrahydrofuro[3,4-b]pyridin-3-yl}carbonyl)glycine] | < 0.01
15 | O=C(O)CNC(=O)c1c(O)c2c(n(Cc3ccc(-c4ccccc4OCC(F)(F)F)cc3)c1=O)COC2 [Example 34, N-[(4-hydroxy-1-{[2′-(2,2,2-trifluoroethoxy)biphenyl-4-yl]methyl}-2-oxo-1,2,5,7-tetrahydrofuro[3,4-b]pyridin-3-yl}carbonyl)glycine] | < 0.01
16 | O=C(O)CNC(=O)c1c(O)c2c(n(Cc3ccc(-c4ccc(Cl)cc4Cl)cc3)c1=O)COC2 [Example 35] | < 0.01
17 | COC(=O)c1ccccc1-c1ccc(Cn2c3c(c(O)c(C(=O)NCC(=O)O)c2=O)COC3)cc1 [Example 36, N-[(4-hydroxy-1-{[2′-(methoxycarbonyl)biphenyl-4-yl]methyl}-2-oxo-1,2,5,7-tetrahydrofuro[3,4,-b]pyridin-3-yl}carbonyl)glycine] | < 0.01
18 | O=C(O)CNC(=O)c1c(O)c2c(n(Cc3ccc(-c4ccc(F)cc4Cl)cc3)c1=O)COC2 [Example 37] | < 0.01
19 | O=C(O)CNC(=O)c1c(O)c2c(n(Cc3ccc(-c4ccccc4Cl)cc3F)c1=O)COC2 [Example 38] | < 0.01
20 | O=C(O)CNC(=O)c1c(O)c2c(n(Cc3ccc(-c4ccc(F)cc4Cl)cc3F)c1=O)COC2 [Example 39] | < 0.01
21 | CCN(CC)C(=O)c1ccccc1-c1ccc(Cn2c3c(c(O)c(C(=O)NCC(=O)O)c2=O)COC3)c(F)c1 [Example 40] | < 0.01
22 | O=C(O)CNC(=O)c1c(O)c2c(n(Cc3ccc(-c4ccccc4)nc3)c1=O)COC2 [Example 41, N-({4-hydroxy-2-oxo-1-[(6-phenylpyridin-3-yl)methyl]-1,2,5,7-tetrahydrofuro[3,4-b]pyridin-3-yl}carbonyl)glycine] | < 0.01
23 | O=C(O)CNC(=O)c1c(O)c2c(n(Cc3ccc(-c4cc(Cl)cc(Cl)c4)nc3)c1=O)COC2 [Example 42, N-[(1-{[6-(3,5-dichlorophenyl)pyridin-3-yl]methyl}-4-hydroxy-2-oxo-1,2,5,7-tetrahydrofuro[3,4-b]pyridin-3-yl)carbonyl]glycine] | < 0.01
24 | Cn1cc(-c2ccc(Cn3c4c(c(O)c(C(=O)NCC(=O)O)c3=O)COC4)cn2)cn1 [Example 43, N-[(4-hydroxy-1-{[6-(1-methyl-1H-pyrazol-4-yl)pyridin-3-yl)methyl}-2-oxo-1,2,5,7-tetrahydrofuro[3,4-b]pyridin-3-yl)carbonyl]glycine] | < 0.01

More lines, now with the values ahead:

Row | IC50 [µM] | SMILES
25 | < 0.01 | O=C(O)CNC(=O)c1c(O)c2c(n(Cc3nc4ccccc4s3)c1=O)COC2 [Example 1, N-{[1-(1,3-benzothiazol-2-ylmethyl)-4-hydroxy-2-oxo-1,2,5,7-tetrahydrofuro[3,4-b]-pyridin-3-yl]carbonyl}glycine]
26 | < 0.01 | O=C(O)CNC(=O)c1c(O)c2c(n(Cc3cccnn3)c1=O)COC2 [Example 4, N-{[4-hydroxy-2-oxo-1-(pyridazin-3-ylmethyl)-1,2,5,7-tetrahydrofuro[3,4-b]pyridin-3-yl]carbonyl}glycine]
27 | < 0.01 | O=C(O)CNC(=O)c1c(O)c2c(n(Cc3noc(-c4ccccc4)n3)c1=O)COC2 [Example 5, N-({4-hydroxy-2-oxo-1-[(5-phenyl-1,2,4-oxadiazol-3-yl)methyl]-1,2,5,7-tetrahydrofuro[3,4-b]pyridin-3-yl}carbonyl)glycine]
28 | < 0.01 | Cc1cnc(Cn2c3c(c(O)c(C(=O)NCC(=O)O)c2=O)COC3)cn1 [Example 7]
29 | < 0.01 | CC(C)Oc1ccc(Cn2c3c(c(O)c(C(=O)NCC(=O)O)c2=O)COC3)cc1 [Example 8, N-{[4-hydroxy-1-(4-isopropoxybenzyl)-2-oxo-1,2,5,7-tetrahydrofuro[3,4-b]pyridin-3-yl]carbonyl}glycine]
30 | < 0.01 | O=C(O)CNC(=O)c1c(O)c2c(n(Cc3ccc(Cl)nc3)c1=O)COC2 [Example 9, N-({1-[(6-chloropyridin-3-yl)methyl]-4-hydroxy-2-oxo-1,2,5,7-tetrahydrofuro[3,4-b]pyridin-3-yl}carbonyl)glycine]
31 | < 0.01 | O=C(O)CNC(=O)c1c(O)c2c(n(Cc3ccc(Br)cc3)c1=O)COC2 [Example 10, N-{[1-(4-bromobenzyl)-4-hydroxy-2-oxo-1,2,5,7-tetrahydrofuro[3,4-b]pyridin-3-yl]carbonyl)glycine]
32 | < 0.01 | O=C(O)CNC(=O)c1c(O)c2c(n(CC3Cc4ccccc4C3)c1=O)COC2 [Example 11, N-{[1-(2,3-dihydro-1H-inden-2-ylmethyl)-4-hydroxy-2-oxo-1,2,5,7-tetrahydrofuro[3,4-b]pyridin-3-yl]carbonyl}glycine]
33 | < 0.01 | O=C(O)CNC(=O)c1c(O)c2c(n(Cc3cnc(Cl)cn3)c1=O)COC2 [Example 12, N-({1-[(5-chloropyrazin-2-yl)methyl]-4-hydroxy-2-oxo-1,2,5,7-tetrahydrofuro[3,4-b]pyridin-3-yl}carbonyl)glycine]
34 | < 0.01 | CC1OCc2c1c(O)c(C(=O)NCC(=O)O)c(=O)n2Cc1ccc(C(F)(F)F)cc1 (centres unmarked) [Example 13, N-({4-hydroxy-5-methyl-2-oxo-1-[4-(trifluoromethyl)benzyl]-1,2,5,7-tetrahydrofuro[3,4-b]pyridin-3-yl}carbonyl)glycine]
35 | < 0.01 | CC1OCc2c1c(O)c(C(=O)NCC(=O)O)c(=O)n2Cc1ccc(C(F)(F)F)nc1 (centres unmarked) [Example 14, N-[(4-hydroxy-5-methyl-2-oxo-1-{[6-(trifluoromethyl)pyridine-3-yl]methyl}-1,2,5,7-tetrahydrofuro[3,4-b]pyridin-3-yl}carbonyl)glycine]
36 | < 0.01 | O=C(O)CNC(=O)c1c(O)c2c(n(Cc3ccc(Br)cc3F)c1=O)COC2 [Example 15, N-{[1-(4-bromo-2-fluorobenzyl)-4-hydroxy-2-oxo-1,2,5,7-tetrahydrofuro[3,4-b]pyridin-3-yl]carbonyl}glycine]
37 | < 0.01 | O=C(O)CNC(=O)c1c(O)c2c(n(Cc3ccc(OC(F)F)cc3)c1=O)COC2 [Example 17, N-{[1-(4-difluoromethoxybenzyl)-4-hydroxy-2-oxo-1,2,5,7-tetrahydrofuro[3,4-b]pyridin-3-yl]carbonyl}glycine]
38 | < 0.01 | O=C(O)CNC(=O)c1c(O)c2c(n(Cc3ccc(OCC(F)(F)F)nc3)c1=O)COC2 [Example 19, N-[(4-hydroxy-2-oxo-1-{[6-(2,2,2-trifluoroethoxy)pyridin-3-yl]methyl}-1,2,5,7-tetrahydrofuro[3,4-b]pyridin-3-yl)carbonyl]glycine]
